# Results reported in patent US5403824A, “Methods for the treatment of osteoporosis” (The Procter & Gamble Company, priority 1993, dated 1995).
# What was measured:
# enkephalinase = enkephalinase inhibition, cleavage of N-suc-Ala-Ala-Phe-AMC by osteoblast-like cells, fluorescence; assay type: biochemical, rat or mouse; conditions: substrate N-succinyl-alanyl-alanylphenylalanyl-7-amido-4-methyl coumarin, 37° C., one hr
# Excerpt: One such model is described by Spillantini et al., 12 Eur. J. Pharmacol 142-150 (1986), which has been modified by Applicants. (Applicants' modification consists of using osteoblast-like cells, rather than human serum, as the source of enkephalin-degrading enzymes.) This model measures inhibition of the enkephalin-degrading enzyme "enkephalinase". According to Applicants' modified method, the source of the enkephalin-degrading enzymes i s rat osteoblast-like cells or mouse osteoblast-like cells (MC3T3-E1 cells). The substrate used is N-succinyl-alanyl-alanyl-phenylalanyl-7-amido-4-methyl coumarin (hereafter N-suc-Ala-Ala-Phe-AMC), which is known to be cleaved at the Ala-Phe peptide bond by enkephalinase. […] Aminopeptidase, which is known to specifically cleave only Phe-AMC (at the Phe-AM(peptide bond), is then added to the sample. Cleavage by aminopeptidase yields the metabolites AMC (fluorescent) and Phe. Fluorescence is then measured and is directly proportional to the amount of substrate degraded by enkephalinase.
# Specifically, a test sample (containing enzyme and a putative enkephalinase inhibitor) and a control sample (containing only enzyme) are equilibrated. A quantified amount of substrate is then added to both samples. […] Fluorescence of the samples is then measured, greater fluorescence corresponding to greater degradation of the substrate by enkephalinase. […]
# [1] = system: human subject with postmenopausal osteoporosis or low bone mass; test: treatment of human subject with osteoporosis, vertebral density by dual-energy photon absorptiometry; assay type: in vivo
# Description: A human subject weighing about 60 kg (132 lbs), suffering from postmenopausal osteoporosis, is treated by a method of this invention. Specifically, for two years, the enkephalin-degrading enzyme inhibitor DL-3-mercapto-2-benzylpropanoylglycine is administered orally, in a cyclical regimen, where each cycle consists of an active period of 28 days during which a tablet containing 160 mg of said inhibitor is administered each day, followed by a non-active period of 28 days during which the subject receives a daily supplement of calcium (1,000 mg/day), with repeat of cycle.
# A human subject weighing about 60 kg (132 lbs), suffering from postmenopausal osteoporosis, is treated by a method of this invention. Specifically, for two years, the compound H-Tyr-D-Ala-Gly-Phe-D-Leu-OH ("DADLE") is administered to the subject, in a cyclical regimen, where each cycle consists of an active period of 28 days during which a solution containing 30 mg of DADLE is administered intravenously every day, followed by a non-active period of 28 days during which the patient receives a daily supplement of calcium (1,000 mg/day), with repeat of cycle.
# (§1) A human subject weighing about 60 kg (132 lbs), suffering from postmenopausal osteoporosis, is treated by a method of this invention. Specifically, for two years, an enkephalin of the formula Tyr-D-Cys(S-t-butylthioether)-Gly-Phe-Leu-Thr(O-t-butylether) ("BUBUC") is administered to the subject, in a cyclical regimen, where each cycle consists of an active period of 28 days during which a solution containing 30 mg of BUBUC is intravenously administered each day, followed by a non-active period of 28 days during which the patient receives a daily supplement of calcium (1,000 mg/day), with repeat of cycle.
# as §1, with “years, the” for “years, an”, “enkephalin secretagogue Tyr-Arg^1,” for “enkephalin of the formula Tyr-D-Cys(S-t-butylthioether)-Gly-Phe-Leu-Thr(O-t-butylether) ("BUBUC")”, “of Tyr-Arg” for “of BUBUC”, “the subject” for “the patient”, “cycle. […]” for “cycle.”
# A human subject weighing about 60 kg (132 lbs), suffering from postmenopausal osteoporosis, is treated by a method of this invention. Specifically, each day for five years, the subject is administered 3 tablets, comprised as follows.
# A human subject weighing about 60 kg (132 lbs) is evaluated approximately four years after spontaneous menopause, and is found to have low bone mass. The subject is then treated by a method of this invention to treat osteoporosis. Specifically, once each month for five years, the subject is administered, via intravenous injection, 5 ml of a solution comprised as follows.
smiles,measurement,setting,value
O=C(O)CNC(=O)C(CS)Cc1ccccc1 (racemic) [DL-3-mercapto-2-benzyl-propanoylglycine],inhibition of substrate degradation by enkephalinase (fluorescence vs control),enkephalinase,significantly inhibited substrate degradation by enkephalinase
same,density of vertebrae / bone mass,[1]; Example 7: 3 tablets of 50.0 mg each day for five years,no significant loss in bone mass has occurred
same,density of vertebrae / bone mass,"[1]; oral tablet 160 mg daily, 28 days active / 28 days calcium, two years",an increase in bone mass
